Assay results as given in patent US12723063B2, “GIPR-agonist compounds” (Eli Lilly and Company, priority 2019, dated 2026).
*1 amine or outer side, *2 acyl side, *3 side chain or, on linkers, in order; H or OH if unused. Where a SMILES comes first, the peptide text is derived from it. Side-chain parts run from the residue outwards. [ ]: non-standard residue; d: D form. The star is where a group is joined. C20 diacid = O=C(O)CCCCCCCCCCCCCCCCCCC(=O)*; αMePhe(2-F) = C[C@](N)(Cc1ccccc1F)C(=O)O; γGlu = O=C(O)[C@H](CCC(=O)[*:2])N[*:1]; αMeF = C[C@](N)(Cc1ccccc1)C(=O)O; 4Pal = N[C@@H](Cc1ccncc1)C(=O)O; αMeL = CC(C)C[C@](C)(N)C(=O)O; AEEA = NCCOCCOCC(=O)O; Aib = CC(C)(N)C(=O)O

Assays:
[1] = target: T1, human GLP-1R (Homo sapiens, UniProt P43220); experiment: [125I]-GLP-1 binding, SPA with WGA beads, 0.1% bacitracin; details: geometric mean, read-out: hGLP1R Ki
T1 construct: expressed in transfected cells; crude membranes
How it was run: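 Binding buffer was 25 mM HEPES pH 7.4 with 2.5 mM CaCl2, 1 mM MgCl2, 0.1% (w/v) bacitracin, 0.003% Tween-20 and EDTA-free protease inhibitors. Four-parameter regression gave IC50, converted to Ki (geometric mean, SEM, n independent days).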

[2] = target: T2, human GcgR (Homo sapiens, UniProt P47871); experiment: [125I]-Glucagon binding, SPA with WGA beads, 0.1% bacitracin; details: geometric mean, read-out: hGcgR Ki
T2 construct: expressed in transfected cells; crude membranes
How it was run: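 SPA competition binding with WGA beads on crude membranes from HEK293 cells stably expressing hGcgR. Buffer: 25 mM HEPES pH 7.4, 2.5 mM CaCl2, 1 mM MgCl2, 0.1% bacitracin, 0.003% Tween-20; 10-point 3-fold dilutions, NSB with 1 μM Gcg.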

T2 sequence (P47871 26-477): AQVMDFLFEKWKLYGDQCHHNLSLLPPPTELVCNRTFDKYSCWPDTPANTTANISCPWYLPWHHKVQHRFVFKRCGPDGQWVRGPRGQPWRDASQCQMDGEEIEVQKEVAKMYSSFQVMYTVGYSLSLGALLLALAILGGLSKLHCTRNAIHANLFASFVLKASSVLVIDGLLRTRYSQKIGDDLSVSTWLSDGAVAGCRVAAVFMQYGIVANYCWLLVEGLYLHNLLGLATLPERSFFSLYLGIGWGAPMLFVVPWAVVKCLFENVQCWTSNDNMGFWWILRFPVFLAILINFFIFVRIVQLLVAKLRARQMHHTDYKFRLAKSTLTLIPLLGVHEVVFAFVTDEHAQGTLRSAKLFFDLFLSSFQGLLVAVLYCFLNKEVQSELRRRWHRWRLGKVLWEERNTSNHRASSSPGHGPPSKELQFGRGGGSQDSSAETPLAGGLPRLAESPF
T1 sequence (P43220 24-463): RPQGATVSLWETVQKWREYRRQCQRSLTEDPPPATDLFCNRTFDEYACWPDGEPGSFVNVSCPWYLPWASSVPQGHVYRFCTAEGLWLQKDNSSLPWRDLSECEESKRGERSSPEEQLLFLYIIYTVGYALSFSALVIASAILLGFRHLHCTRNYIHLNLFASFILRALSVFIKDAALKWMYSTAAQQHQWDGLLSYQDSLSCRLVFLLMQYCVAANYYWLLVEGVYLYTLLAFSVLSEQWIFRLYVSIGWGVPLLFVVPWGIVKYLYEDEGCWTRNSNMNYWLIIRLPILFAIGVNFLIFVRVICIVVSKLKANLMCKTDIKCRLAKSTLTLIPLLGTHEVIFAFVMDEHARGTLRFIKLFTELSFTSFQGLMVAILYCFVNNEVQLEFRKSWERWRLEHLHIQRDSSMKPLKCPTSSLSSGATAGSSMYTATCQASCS

SMILES	Ki [1] [µM]	Ki [2] [µM]
CC[C@H](C)[C@H](NC(=O)[C@H](CO)NC(=O)[C@H](Cc1ccc(O)cc1)NC(=O)[C@H](CC(=O)O)NC(=O)[C@H](CO)NC(=O)[C@@H](NC(=O)[C@](C)(Cc1ccccc1)NC(=O)[C@@H](NC(=O)CNC(=O)[C@H](CCC(=O)O)NC(=O)C(C)(C)NC(=O)[C@@H](N)Cc1ccc(O)cc1)[C@@H](C)O)[C@@H](C)CC)C(=O)N[C@@H](C)C(=O)N[C@@H](CC(C)C)C(=O)N[C@@H](CC(=O)O)C(=O)N[C@@H](CCCCN)C(=O)N[C@@H](CCCCNC(=O)COCCOCCNC(=O)COCCOCCNC(=O)CC[C@H](NC(=O)CCCCCCCCCCCCCCCCCCC(=O)O)C(=O)O)C(=O)N[C@@H](Cc1c[nH]cn1)C(=O)N[C@@H](CCC(N)=O)C(=O)NC(C)(C)C(=O)N[C@@H](CC(=O)O)C(=O)N[C@@H](Cc1ccccc1)C(=O)N[C@H](C(=O)N[C@@H](CCC(=O)O)C(=O)N[C@@H](Cc1ccncc1)C(=O)N[C@@H](CC(C)C)C(=O)N[C@@H](CC(C)C)C(=O)N[C@@H](CCC(=O)O)C(=O)N[C@@H](C)C(=O)NCC(=O)N1CCC[C@H]1C(=O)N[C@@H](CO)C(=O)N[C@@H](CO)C(=O)NCC(=O)N[C@@H](C)C(=O)N1CCC[C@H]1C(=O)N1CCC[C@H]1C(=O)N1CCC[C@H]1C(=O)N[C@@H](CO)C(N)=O)C(C)C [Example 43] (H-Y[Aib]EGT[αMeF]ISDYSIALDKK([AEEA-AEEA-γGlu-C20 diacid])HQ[Aib]DFVE[4Pal]LLEAGPSSGAPPPS-NH2)	0.605	0.285
CC[C@H](C)[C@H](NC(=O)[C@H](CO)NC(=O)[C@H](Cc1ccc(O)cc1)NC(=O)[C@H](CC(=O)O)NC(=O)[C@H](CO)NC(=O)[C@@H](NC(=O)[C@](C)(Cc1ccccc1F)NC(=O)[C@@H](NC(=O)CNC(=O)[C@H](CCC(=O)O)NC(=O)C(C)(C)NC(=O)[C@@H](N)Cc1ccc(O)cc1)[C@@H](C)O)[C@@H](C)CC)C(=O)N[C@@H](C)C(=O)N[C@@H](CC(C)C)C(=O)N[C@@H](CC(=O)O)C(=O)N[C@@H](CCCCN)C(=O)N[C@@H](CCCCNC(=O)COCCOCCNC(=O)COCCOCCNC(=O)CC[C@H](NC(=O)CCCCCCCCCCCCCCCCCCC(=O)O)C(=O)O)C(=O)N[C@@H](Cc1c[nH]cn1)C(=O)N[C@@H](CCC(N)=O)C(=O)NC(C)(C)C(=O)N[C@@H](CC(=O)O)C(=O)N[C@@H](Cc1ccccc1)C(=O)N[C@H](C(=O)N[C@@H](CCC(=O)O)C(=O)N[C@@H](Cc1ccc(O)cc1)C(=O)N[C@@H](CC(C)C)C(=O)N[C@@H](CC(C)C)C(=O)N[C@@H](CCC(=O)O)C(=O)NCC(=O)NCC(=O)N1CCC[C@H]1C(=O)N[C@@H](CO)C(=O)N[C@@H](CO)C(=O)NCC(=O)N[C@@H](C)C(=O)N1CCC[C@H]1C(=O)N1CCC[C@H]1C(=O)N1CCC[C@H]1C(=O)N[C@@H](CO)C(N)=O)C(C)C [Example 37] (H-Y[Aib]EGT[αMePhe(2-F)]ISDYSIALDKK([AEEA-AEEA-γGlu-C20 diacid])HQ[Aib]DFVEYLLEGGPSSGAPPPS-NH2)	0.0839	0.0514
CC[C@H](C)[C@H](NC(=O)[C@H](Cc1ccccc1)NC(=O)[C@@H](NC(=O)CNC(=O)[C@H](CCC(=O)O)NC(=O)C(C)(C)NC(=O)[C@@H](N)Cc1ccc(O)cc1)[C@@H](C)O)C(=O)N[C@@H](CO)C(=O)N[C@@H](CC(=O)O)C(=O)N[C@@H](Cc1ccc(O)cc1)C(=O)N[C@@H](CO)C(=O)N[C@H](C(=O)N[C@@](C)(CC(C)C)C(=O)N[C@@H](CC(C)C)C(=O)N[C@@H](CC(=O)O)C(=O)N[C@@H](CCCCN)C(=O)N[C@@H](CCCCNC(=O)COCCOCCNC(=O)COCCOCCNC(=O)CC[C@H](NC(=O)CCCCCCCCCCCCCCCCCCC(=O)O)C(=O)O)C(=O)N[C@@H](Cc1c[nH]cn1)C(=O)N[C@@H](CCC(N)=O)C(=O)NC(C)(C)C(=O)N[C@@H](CC(=O)O)C(=O)N[C@@H](Cc1ccccc1)C(=O)N[C@H](C(=O)N[C@@H](CCC(=O)O)C(=O)N[C@@H](Cc1ccncc1)C(=O)N[C@@H](CC(C)C)C(=O)N[C@@H](CC(C)C)C(=O)N[C@@H](CCC(=O)O)C(=O)N[C@@H](CCC(N)=O)C(=O)NCC(=O)N1CCC[C@H]1C(=O)N[C@@H](CO)C(=O)N[C@@H](CO)C(=O)NCC(=O)N[C@@H](C)C(=O)N1CCC[C@H]1C(=O)N1CCC[C@H]1C(=O)N1CCC[C@H]1C(=O)N[C@@H](CO)C(N)=O)C(C)C)[C@@H](C)CC [Example 46] (H-Y[Aib]EGTFISDYSI[αMeL]LDKK([AEEA-AEEA-γGlu-C20 diacid])HQ[Aib]DFVE[4Pal]LLEQGPSSGAPPPS-NH2)	0.744	0.435
CC[C@H](C)[C@H](NC(=O)[C@H](Cc1ccccc1)NC(=O)[C@@H](NC(=O)CNC(=O)[C@H](CCC(=O)O)NC(=O)C(C)(C)NC(=O)[C@@H](N)Cc1ccc(O)cc1)[C@@H](C)O)C(=O)N[C@@H](CO)C(=O)N[C@@H](CC(=O)O)C(=O)N[C@@H](Cc1ccc(O)cc1)C(=O)N[C@@H](CO)C(=O)N[C@H](C(=O)N[C@@](C)(CC(C)C)C(=O)N[C@@H](CC(C)C)C(=O)N[C@@H](CC(=O)O)C(=O)N[C@@H](CCCCN)C(=O)N[C@@H](CCCCNC(=O)COCCOCCNC(=O)COCCOCCNC(=O)CC[C@H](NC(=O)CCCCCCCCCCCCCCCCCCC(=O)O)C(=O)O)C(=O)N[C@@H](Cc1c[nH]cn1)C(=O)N[C@@H](CCC(N)=O)C(=O)NC(C)(C)C(=O)N[C@@H](CCC(=O)O)C(=O)N[C@@H](Cc1ccccc1)C(=O)N[C@H](C(=O)N[C@@H](CCC(=O)O)C(=O)N[C@@H](Cc1ccncc1)C(=O)N[C@@H](CC(C)C)C(=O)N[C@@H](CC(C)C)C(=O)N[C@@H](C)C(=O)N[C@@H](CCC(N)=O)C(=O)NCC(=O)N1CCC[C@H]1C(=O)N[C@@H](CO)C(=O)N[C@@H](CO)C(=O)NCC(=O)N[C@@H](C)C(=O)N1CCC[C@H]1C(=O)N1CCC[C@H]1C(=O)N1CCC[C@H]1C(=O)N[C@@H](CO)C(N)=O)C(C)C)[C@@H](C)CC [Example 57] (H-Y[Aib]EGTFISDYSI[αMeL]LDKK([AEEA-AEEA-γGlu-C20 diacid])HQ[Aib]EFVE[4Pal]LLAQGPSSGAPPPS-NH2)	0.28	0.422
CC[C@H](C)[C@H](NC(=O)[C@H](Cc1ccccc1)NC(=O)[C@@H](NC(=O)CNC(=O)[C@H](CCC(=O)O)NC(=O)C(C)(C)NC(=O)[C@@H](N)Cc1ccc(O)cc1)[C@@H](C)O)C(=O)N[C@@H](CO)C(=O)N[C@@H](CC(=O)O)C(=O)N[C@@H](Cc1ccc(O)cc1)C(=O)N[C@@H](CO)C(=O)N[C@H](C(=O)N[C@@](C)(CC(C)C)C(=O)N[C@@H](CC(C)C)C(=O)N[C@@H](CC(=O)O)C(=O)N[C@@H](CCCCN)C(=O)N[C@@H](CCCCNC(=O)COCCOCCNC(=O)COCCOCCNC(=O)CC[C@H](NC(=O)CCCCCCCCCCCCCCCCCCC(=O)O)C(=O)O)C(=O)N[C@@H](Cc1c[nH]cn1)C(=O)N[C@@H](CCC(N)=O)C(=O)NC(C)(C)C(=O)N[C@@H](CC(=O)O)C(=O)N[C@@H](Cc1ccccc1)C(=O)N[C@H](C(=O)N[C@@H](CCC(=O)O)C(=O)N[C@@H](Cc1ccc(O)cc1)C(=O)N[C@@H](CC(C)C)C(=O)N[C@@H](CC(C)C)C(=O)N[C@@H](CCC(=O)O)C(=O)NCC(=O)NCC(=O)N1CCC[C@H]1C(=O)N[C@@H](CO)C(=O)N[C@@H](CO)C(=O)NCC(=O)N[C@@H](C)C(=O)N1CCC[C@H]1C(=O)N1CCC[C@H]1C(=O)N1CCC[C@H]1C(=O)N[C@@H](CO)C(N)=O)C(C)C)[C@@H](C)CC [Example 69] (H-Y[Aib]EGTFISDYSI[αMeL]LDKK([AEEA-AEEA-γGlu-C20 diacid])HQ[Aib]DFVEYLLEGGPSSGAPPPS-NH2)	0.144	0.114
CC[C@H](C)[C@H](NC(=O)[C@H](Cc1ccccc1)NC(=O)[C@@H](NC(=O)CNC(=O)[C@H](CCC(=O)O)NC(=O)C(C)(C)NC(=O)[C@@H](N)Cc1ccc(O)cc1)[C@@H](C)O)C(=O)N[C@@H](CO)C(=O)N[C@@H](CC(=O)O)C(=O)N[C@@H](Cc1ccc(O)cc1)C(=O)N[C@@H](CO)C(=O)N[C@H](C(=O)N[C@@](C)(CC(C)C)C(=O)N[C@@H](CC(C)C)C(=O)N[C@@H](CC(=O)O)C(=O)N[C@@H](CCCCN)C(=O)N[C@@H](CCCCNC(=O)COCCOCCNC(=O)COCCOCCNC(=O)CC[C@H](NC(=O)CCCCCCCCCCCCCCCCCCC(=O)O)C(=O)O)C(=O)N[C@@H](Cc1c[nH]cn1)C(=O)N[C@@H](CCC(N)=O)C(=O)NC(C)(C)C(=O)N[C@@H](CCC(=O)O)C(=O)N[C@@H](Cc1ccccc1)C(=O)N[C@H](C(=O)N[C@@H](CCC(=O)O)C(=O)N[C@@H](Cc1ccncc1)C(=O)N[C@@H](CC(C)C)C(=O)N[C@@H](CC(C)C)C(=O)N[C@@H](C)C(=O)N[C@@H](C)C(=O)NCC(=O)N1CCC[C@H]1C(=O)N[C@@H](CO)C(=O)N[C@@H](CO)C(=O)NCC(=O)N[C@@H](C)C(=O)N1CCC[C@H]1C(=O)N1CCC[C@H]1C(=O)N1CCC[C@H]1C(=O)N[C@@H](CO)C(N)=O)C(C)C)[C@@H](C)CC [Example 59]	0.109	0.23
CC[C@H](C)[C@H](NC(=O)[C@H](CO)NC(=O)[C@H](Cc1ccc(O)cc1)NC(=O)[C@H](CC(=O)O)NC(=O)[C@H](CO)NC(=O)[C@@H](NC(=O)[C@](C)(Cc1ccccc1)NC(=O)[C@@H](NC(=O)CNC(=O)[C@H](CCC(=O)O)NC(=O)C(C)(C)NC(=O)[C@@H](N)Cc1ccc(O)cc1)[C@@H](C)O)[C@@H](C)CC)C(=O)N[C@@](C)(CC(C)C)C(=O)N[C@@H](CC(C)C)C(=O)N[C@@H](CC(=O)O)C(=O)N[C@@H](CCCCN)C(=O)N[C@@H](CCCCNC(=O)COCCOCCNC(=O)COCCOCCNC(=O)CC[C@H](NC(=O)CCCCCCCCCCCCCCCCCCC(=O)O)C(=O)O)C(=O)N[C@@H](Cc1c[nH]cn1)C(=O)N[C@@H](CCC(N)=O)C(=O)NC(C)(C)C(=O)N[C@@H](CC(=O)O)C(=O)N[C@@H](Cc1ccccc1)C(=O)N[C@H](C(=O)N[C@@H](CCC(=O)O)C(=O)N[C@@H](Cc1ccncc1)C(=O)N[C@@H](CC(C)C)C(=O)N[C@@H](CC(C)C)C(=O)N[C@@H](C)C(=O)NCC(=O)NCC(=O)N1CCC[C@H]1C(=O)N[C@@H](CO)C(=O)N[C@@H](CO)C(=O)NCC(=O)N[C@@H](C)C(=O)N1CCC[C@H]1C(=O)N1CCC[C@H]1C(=O)N1CCC[C@H]1C(=O)N[C@@H](CO)C(N)=O)C(C)C [Example 50] (H-Y[Aib]EGT[αMeF]ISDYSI[αMeL]LDKK([AEEA-AEEA-γGlu-C20 diacid])HQ[Aib]DFVE[4Pal]LLAGGPSSGAPPPS-NH2)	0.0349	0.0234
